Assay results as given in ChEMBL document CHEMBL4190322, “Structure-based development of novel triazoles and related thiazolotriazoles as anticancer agents and Cdc25A/B phosphatase inhibitors. Synthesis, in vitro biological evaluation, molecular docking and in silico ADME-T studies” (Eur J Med Chem, 2017).
The source made the active and inactive calls. The rule behind the calls is not given here.

What was measured:
[1] = test system: NCI-H226; experiment: Growth inhibition of human NCI-H226 cells at 10 uM after 48 hrs by SRB assay relative to control; assay type: functional; settings: for inhibition of growth at 10 µM: NCI-H226, 48 h, read-out: GI
[2] = test system: UACC-257; experiment: Growth inhibition of human UACC257 cells at 10 uM after 48 hrs by SRB assay relative to control; assay type: functional
[3] = test system: MOLT-4; experiment: Growth inhibition of human MOLT4 cells at 10 uM after 48 hrs by SRB assay relative to control; assay type: functional; settings: MOLT-4, 48 h, read-out: GI
[4] = test system: SK-MEL-2; experiment: Growth inhibition of human SK-MEL-2 cells at 10 uM after 48 hrs by SRB assay relative to control; assay type: functional; settings: SK-MEL-2, 48 h, read-out: GI
[5] = test system: PC-3; experiment: Growth inhibition of human PC3 cells at 10 uM after 48 hrs by SRB assay relative to control; assay type: functional; settings: PC-3, 48 h, read-out: GI
[6] = test system: U-251; experiment: Growth inhibition of human U251 cells at 10 uM after 48 hrs by SRB assay relative to control; assay type: functional; settings: U-251, 48 h, read-out: GI
[7] = test system: K562; experiment: Growth inhibition of human K562 cells at 10 uM after 48 hrs by SRB assay relative to control; assay type: functional; settings: K562, 48 h, read-out: GI
[8] = test system: UACC-62; experiment: Growth inhibition of human UACC62 cells at 10 uM after 48 hrs by SRB assay relative to control; assay type: functional; settings: UACC-62, 48 h, read-out: GI
[9] = test system: SNB-75; experiment: Growth inhibition of human SNB75 cells at 10 uM after 48 hrs by SRB assay relative to control; assay type: functional; settings: SNB-75, 48 h, read-out: GI
[10] = test system: HL-60; experiment: Growth inhibition of human HL60 cells at 10 uM after 48 hrs by SRB assay relative to control; assay type: functional
[11] = test system: Malme-3M; experiment: Growth inhibition of human MALME-3M cells at 10 uM after 48 hrs by SRB assay relative to control; assay type: functional; settings: read-out: GI
[12] = target: T1, M-phase inducer phosphatase 2 (Homo sapiens, UniProt P30305); experiment: Inhibition of human CDC25B using OMFP as substrate after 15 mins by fluorescence assay
T1 sequence (P30305 whole entry): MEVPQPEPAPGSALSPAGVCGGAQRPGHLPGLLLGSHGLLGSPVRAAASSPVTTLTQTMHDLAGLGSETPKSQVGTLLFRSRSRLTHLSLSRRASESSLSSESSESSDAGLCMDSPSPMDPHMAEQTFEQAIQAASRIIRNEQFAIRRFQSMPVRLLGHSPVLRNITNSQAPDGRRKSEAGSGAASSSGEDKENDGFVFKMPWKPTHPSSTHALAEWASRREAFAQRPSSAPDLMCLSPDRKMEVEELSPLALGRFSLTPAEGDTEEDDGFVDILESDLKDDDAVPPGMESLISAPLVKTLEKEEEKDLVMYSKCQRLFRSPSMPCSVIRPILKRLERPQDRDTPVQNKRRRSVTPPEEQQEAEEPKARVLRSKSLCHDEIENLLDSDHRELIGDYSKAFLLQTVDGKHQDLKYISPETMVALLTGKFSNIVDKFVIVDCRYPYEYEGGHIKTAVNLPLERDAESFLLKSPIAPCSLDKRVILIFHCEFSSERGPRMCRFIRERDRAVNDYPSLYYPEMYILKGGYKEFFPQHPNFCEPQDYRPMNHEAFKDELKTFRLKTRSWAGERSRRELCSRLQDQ

[13] = target: T2, M-phase inducer phosphatase 1 (Homo sapiens, UniProt P30304); experiment: Inhibition of human CDC25A using OMFP as substrate after 15 mins by fluorescence assay
T2 sequence (P30304 whole entry): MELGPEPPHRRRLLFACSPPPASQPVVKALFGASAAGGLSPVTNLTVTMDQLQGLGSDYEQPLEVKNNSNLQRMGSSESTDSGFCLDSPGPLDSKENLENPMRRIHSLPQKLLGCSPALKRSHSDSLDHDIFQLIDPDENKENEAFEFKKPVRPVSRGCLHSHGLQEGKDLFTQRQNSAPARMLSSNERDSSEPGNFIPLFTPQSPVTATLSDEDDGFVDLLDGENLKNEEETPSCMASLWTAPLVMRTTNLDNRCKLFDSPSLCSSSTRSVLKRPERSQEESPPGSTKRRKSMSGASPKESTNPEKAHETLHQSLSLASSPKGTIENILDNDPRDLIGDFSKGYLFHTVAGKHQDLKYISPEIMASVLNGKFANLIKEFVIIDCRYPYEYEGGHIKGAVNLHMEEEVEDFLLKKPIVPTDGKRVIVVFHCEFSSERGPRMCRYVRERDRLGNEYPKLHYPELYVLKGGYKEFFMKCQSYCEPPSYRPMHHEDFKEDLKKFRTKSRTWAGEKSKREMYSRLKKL

[14] = test system: NCI-H522; experiment: Growth inhibition of human NCI-H522 cells at 10 uM after 48 hrs by SRB assay relative to control; assay type: functional; settings: NCI-H522, 48 h, read-out: GI
[15] = test system: RXF 393; experiment: Growth inhibition of human RXF393 cells at 10 uM after 48 hrs by SRB assay relative to control; assay type: functional; settings: for inhibition of growth at 10 µM: RXF 393, 48 h, read-out: GI
[16] = test system: NCI-H322M; experiment: Growth inhibition of human NCI-H322M cells at 10 uM after 48 hrs by SRB assay relative to control; assay type: functional; settings: read-out: GI
[17] = test system: SK-MEL-5; experiment: Growth inhibition of human SK-MEL-5 cells at 10 uM after 48 hrs by SRB assay relative to control; assay type: functional; settings: SK-MEL-5, 48 h, read-out: GI
[18] = test system: SK-OV-3; experiment: Growth inhibition of human SKOV3 cells at 10 uM after 48 hrs by SRB assay relative to control; assay type: functional; settings: SK-OV-3, 48 h, read-out: GI
[19] = test system: OVCAR-4; experiment: Growth inhibition of human OVCAR4 cells at 10 uM after 48 hrs by SRB assay relative to control; assay type: functional; settings: OVCAR-4, 48 h, read-out: GI
[20] = test system: SNB-19; experiment: Growth inhibition of human SNB19 cells at 10 uM after 48 hrs by SRB assay relative to control; assay type: functional; settings: for inhibition of growth at 10 µM: SNB-19, 48 h, read-out: GI
[21] = test system: A498; experiment: Growth inhibition of human A498 cells at 10 uM after 48 hrs by SRB assay relative to control; assay type: functional; settings: A498, 48 h, read-out: GI
[22] = test system: Hs-578T; experiment: Growth inhibition of human Hs 578T cells at 10 uM after 48 hrs by SRB assay relative to control; assay type: functional
[23] = test system: OVCAR-3; experiment: Growth inhibition of human OVCAR3 cells at 10 uM after 48 hrs by SRB assay relative to control; assay type: functional; settings: for inhibition of growth at 10 µM: OVCAR-3, 48 h, read-out: GI
[24] = test system: CCRF-CEM; experiment: Growth inhibition of human CCRF-CEM cells at 10 uM after 48 hrs by SRB assay relative to control; assay type: functional; settings: read-out: GI
[25] = test system: SR; experiment: Growth inhibition of human SR cells at 10 uM after 48 hrs by SRB assay relative to control; assay type: functional; settings: read-out: GI
[26] = test system: LOX IMVI; experiment: Growth inhibition of human LOXIMVI cells at 10 uM after 48 hrs by SRB assay relative to control; assay type: functional; settings: read-out: GI

| SMILES | growth inhibition (GI) [2] | inhibition of growth at 10 µM [3] | inhibition of growth at 10 µM [4] | inhibition of growth at 10 µM [5] | inhibition of growth at 10 µM [6] | inhibition of growth at 10 µM [7] | inhibition of growth at 10 µM [8] | inhibition of growth at 10 µM [9] | inhibition of growth at 10 µM [11] | IC50 [12] | IC50 [13] | inhibition of growth at 10 µM [14] | inhibition of growth at 10 µM [16] | inhibition of growth at 10 µM [17] | inhibition of growth at 10 µM [18] | inhibition of growth at 10 µM [19] | inhibition of growth at 10 µM [21] | inhibition of growth at 10 µM [24] | inhibition of growth at 10 µM [25] | inhibition of growth at 10 µM [26] | also measured |
| --- | --- | --- | --- | --- | --- | --- | --- | --- | --- | --- | --- | --- | --- | --- | --- | --- | --- | --- | --- | --- | --- |
| COc1ccc(Cc2nnc(SCC(=O)Nc3ccc(Cl)cc3)n2-c2ccccc2)cc1 | inactive | 42.3% | 3.18% | 45.2% | 4.12% | 25% | 18.8% | 8.27% | 11.7% | 22.5 µM | 32.9 µM | 22.3% | 8.75% | 3.39% | 14.1% | 1.8% | 15.5% | 21.4% | 31.2% | 11.9% | growth inhibition (GI) [1]: inactive; growth inhibition (GI) [10]: inactive; inhibition of growth at 10 µM [15]: 3.85%; inhibition of growth at 10 µM [20]: 3%; growth inhibition (GI) [22]: inactive; growth inhibition (GI) [23]: inactive |
| COc1ccc(Cc2nnc(SCC(=O)c3ccc(Cl)cc3)n2Cc2ccccc2)cc1 | – | 28.6% | 13% | 51.8% | 8.87% | 29.2% | 14.8% | 14.4% | 3% | 6.7 µM | 11.4 µM | 30% | 26% | 5.52% | 17% | 10% | 35.2% | 20% | 22.2% | 6.87% | inhibition of growth at 10 µM [1]: 10%; inhibition of growth at 10 µM ([2]; UACC-257, 48 h, read-out: GI): 6.9%; growth inhibition (GI) [10]: inactive; inhibition of growth at 10 µM [15]: 16%; inhibition of growth at 10 µM [20]: 9.2%; inhibition of growth at 10 µM ([22]; read-out: GI): 20%; inhibition of growth at 10 µM [23]: 18.4% |
| COc1ccc(Cc2nnc(SCC(=O)c3ccc(Cl)cc3)n2-c2ccc(C)cc2)cc1 | inactive | 32.7% | 10% | 26% | 10.4% | 53.5% | 5.42% | 11.4% | 12% | 17.3 µM | 20.5 µM | 23% | 4% | 1.52% | 1.07% | 18.6% | 46% | 23% | 20% | 1.19% | inhibition of growth at 10 µM [1]: 3%; inhibition of growth at 10 µM ([10]; HL-60, 48 h, read-out: GI): 26.4%; growth inhibition (GI) [15]: inactive; growth inhibition (GI) [20]: inactive; growth inhibition (GI) [22]: inactive; inhibition of growth at 10 µM [23]: 4.28% |
